The target in assay [1] is T1, glucagon receptor (GCGR) (Homo sapiens, UniProt P47871).
T1 construct: expressed in transfected cells; host or cells: CHO-K1 cells overexpressing GCGR (membrane fractions)
The assay is described as follows: I125-glucagon binding assay (competition, GCGR membrane fractions). In short, it runs like this:
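Competition of 0.0625 nM (final) I^125-glucagon for 30 min at 25° C, after 5 min compound preincubation, using 7.5 μg/well GCGR-overexpressing CHO-K1 membranes in 50 mM Tris pH 7.4, 0.5% BSA. Filtration onto PEI-coated GF/B, micro-beta counting, and non-linear regression gave IC50.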

Assay [2] has as its target T2, glucagon receptor (GCGR) overexpressed CHO-K1 cells or human primary hepatocytes (Homo sapiens, UniProt P47871).
T2 construct: expressed in transfected cells; host or cells: GCGR overexpressed CHO-K1 cells or human primary hepatocytes (endogenous receptor)
The assay is described as follows: Glucagon cAMP inhibition assay (Cisbio cAMP Dynamic 2 HTRF). Format: cell-based. The essentials:
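HTRF read-out of glucagon-induced cAMP, with IC50 from non-linear regression. Cells (GCGR CHO-K1 or human primary hepatocytes) in HBSS/0.1% BSA/800 nM IBMX took compound dilutions for 30 min (final DMSO 1%), then EC50-level glucagon for 30 min at room temperature, then a 60 min lysis/detection step.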
(TR-FRET usually uses a lanthanide donor and a delayed reading to cut background.)

Setting [3] is: competition with I125-glucagon 0.0625 nM, membrane fractions of GCGR overexpressed CHO-K1 cells.
[4] abbreviates: inhibition of glucagon (EC50 concentration) induced cAMP production.

Like-named read-outs stand apart in the source and are kept apart here. Where only a bound is given, the exact number is not on record here.

T1 sequence (P47871 26-477): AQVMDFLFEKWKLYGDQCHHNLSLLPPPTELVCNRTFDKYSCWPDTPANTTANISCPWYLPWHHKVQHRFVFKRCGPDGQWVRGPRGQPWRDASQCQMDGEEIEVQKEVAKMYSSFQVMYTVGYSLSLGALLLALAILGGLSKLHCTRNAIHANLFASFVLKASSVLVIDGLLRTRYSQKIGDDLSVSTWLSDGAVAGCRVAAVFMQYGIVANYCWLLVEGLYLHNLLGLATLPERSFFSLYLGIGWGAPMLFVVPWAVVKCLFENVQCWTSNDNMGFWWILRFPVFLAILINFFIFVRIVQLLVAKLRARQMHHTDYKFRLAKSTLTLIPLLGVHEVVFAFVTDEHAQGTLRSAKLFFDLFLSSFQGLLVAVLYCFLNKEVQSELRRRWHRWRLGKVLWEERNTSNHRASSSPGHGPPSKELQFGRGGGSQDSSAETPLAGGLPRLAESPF
T2 sequence (P47871 26-477): as above

The term IC50 denotes the point on the concentration scale where inhibition reaches its midpoint. `CC[C@H](C)[C@@H](COc1ccc(-c2cc3ccccc3o2)c(OC)c1)Nc1ccc(C(=O)NCCC(=O)O)cc1` [Compound 13-1, 3-(4-(((2S,3S)-1-(4-(benzofuran-2-yl)-3-methoxyphenoxy)-3-methylpentan-2-yl)amino)benzamido)propanoic Acid]: the IC50 in assay [1] (setting [3]) was found to be 46 nM. Besides, in assay [2] (setting [4]), the “IC50 cAMP” value came to 157 nM.

In the case of `CC[C@H](C)[C@@H](COc1ccc(-c2ccc(Cl)cc2Cl)c(OC)c1)Nc1ccc(C(=O)NCCC(=O)O)cc1` [Compound 13-2, 3-(4-(((2S,3S)-1-((2′,4′-dichloro-2-methoxy-[1,1′-biphenyl]-4-yl)oxy)-3-methylpentan-2-yl)amino)benzamido)propanoic Acid], in assay [1] (setting [3]), the IC50 is 92 nM. In addition, in assay [2] (setting [4]), the “IC50 cAMP” value was 254 nM.

`CC[C@H](C)[C@@H](COc1ccc(-c2ccc(C(F)(F)F)cc2Cl)c(OC)c1)Nc1ccc(C(=O)NCCC(=O)O)cc1` [Compound 13-3, 3-(4-(((2S,3S)-1-((2′-chloro-2-methoxy-4′-(trifluoromethyl)-[1,1′-biphenyl]-4-yl)oxy)-3-methylpentan-2-yl)amino)benzamido)propanoic Acid] came in with an IC50 in assay [1] (setting [3]) of 57 nM. Further, in assay [2] (setting [4]), the “IC50 cAMP” value is given as 71 nM.

Turning to `CC[C@H](C)[C@@H](COc1ccc(-c2ccc(C(F)(F)F)cc2F)c(OC)c1)Nc1ccc(C(=O)NCCC(=O)O)cc1` [Compound 13-4], the IC50 in assay [1] (setting [3]) turned out to be 68 nM. For the same compound, the “IC50 cAMP” value in assay [2] (setting [4]) is given as 131 nM.

Consider `COc1cc(OC[C@@H](Nc2ccc(C(=O)NCCC(=O)O)cc2)C(C)C)ccc1-c1cc2ccccc2o1` [Compound 13-5, (S)-3-(4-((1-(4-(benzofuran-2-yl)-3-methoxyphenoxy)-3-methylbutan-2-yl)amino)benzamido)propanoic Acid], for which the IC50 in assay [1] (setting [3]) was 111 nM. Besides, the “IC50 cAMP” value in assay [2] (setting [4]) turned out to be 112 nM.

`COc1cc(OC[C@@H](Nc2ccc(C(=O)NCCC(=O)O)cc2)C(C)C)ccc1-c1ccc(C(F)(F)F)cc1Cl` [Compound 13-6, (S)-3-(4-((1-((2′-chloro-2-methoxy-4′-(trifluoromethyl)-[1,1′-biphenyl]-4-yl)oxy)-3-methylbutan-2-yl)amino)benzamido)propanoic Acid] registered an IC50 in assay [1] (setting [3]) of 89 nM. In assay [2] (setting [4]), the “IC50 cAMP” value is given as 97 nM.

In turn, `COc1cc(OC[C@@H](Nc2ccc(C(=O)NCCC(=O)O)cc2)C(C)C)ccc1-c1ccc(Cl)cc1Cl` [Compound 13-7, (S)-3-(4-((1-((2′,4′-dichloro-2-methoxy-[1,1′-biphenyl]-4-yl)oxy)-3-methylbutan-2-yl)amino)benzamido)propanoic Acid] registered an IC50 in assay [1] (setting [3]) of 95 nM. Further, in assay [2] (setting [4]), the “IC50 cAMP” value was determined as 139 nM.

In assay [1] (setting [3]), `COc1cc(OC[C@@H](Nc2ccc(C(=O)NCCC(=O)O)cc2)C(C)C)ccc1-c1ccc(C(F)(F)F)cc1F` [Compound 13-8, (S)-3-(4-((1-((2′-fluoro-2-methoxy-4′-(trifluoromethyl)-[1,1′-biphenyl]-4-yl)oxy)-3-methylbutan-2-yl)amino)benzamido)propanoic Acid] returned an IC50 of 79 nM. Moreover, the “IC50 cAMP” value in assay [2] (setting [4]) was 77.8 nM.

The compound `CCCC[C@@H](COc1ccc(-c2ccc(Cl)cc2Cl)c(OC)c1)Nc1ccc(C(=O)NCCC(=O)O)cc1` [Compound 13-9, (S)-3-(4-((1-((2′,4′-dichloro-2-methoxy-[1,1′-biphenyl]-4-yl)oxy)hexan-2-yl)amino)benzamido)propanoic Acid] had an IC50 in assay [1] (setting [3]) of 54 nM. Moreover, the “IC50 cAMP” value in assay [2] (setting [4]) is given as 219 nM.

As for `COc1cc(OC[C@@H](Nc2ccc(C(=O)NCCC(=O)O)cc2)C(C)C)ccc1-c1ccc(C(F)(F)F)cc1` [Compound 13-10, (S)-3-(4-((1-((2-methoxy-4′-(trifluoromethyl)-[1,1′-biphenyl]-4-yl)oxy)-3-methylbutan-2-yl)amino)benzamido)propanoic Acid], the IC50 in assay [1] (setting [3]) was determined as 92 nM. Besides, the “IC50 cAMP” value in assay [2] (setting [4]) turned out to be 246 nM.

Consider `CCCC[C@@H](COc1ccc(-c2ccc(C(F)(F)F)cc2)c(OC)c1)Nc1ccc(C(=O)NCCC(=O)O)cc1` [Compound 13-11, (S)-3-(4-((1-((2-methoxy-4′-(trifluoromethyl)-[, 1′-biphenyl]-4-yl)oxy)hexan-2-yl)amino)benzamido)propanoic Acid], for which, in assay [1] (setting [3]), the IC50 is 47 nM. Also, the “IC50 cAMP” value in assay [2] (setting [4]) is 118 nM.

Regarding `CC[C@H](C)[C@@H](COc1ccc(-c2nnc(-c3ccccc3)o2)c(OC)c1)Nc1ccc(C(=O)NCCC(=O)O)cc1` [Compound 13-12, 3-(4-(((2S,3S)-1-(3-methoxy-4-(5-phenyl-1,3,4-oxadiazol-2-yl)phenoxy)-3-methylpentan-2-yl)amino)benzamido)propanoic Acid], the IC50 in assay [1] (setting [3]) came out at 608 nM. For the same compound, the “IC50 cAMP” value in assay [2] (setting [4]) is reported as 23347 nM.

`CCCC[C@@H](COc1ccc(-c2ccc(C(F)(F)F)cc2F)c(OC)c1)Nc1ccc(C(=O)NCCC(=O)O)cc1` [Compound 13-14, (S)-3-(4-((1-((2′-fluoro-2-methoxy-4′-(trifluoromethyl)-[1,1′-biphenyl]-4-yl)oxy)hexan-2-yl)amino)benzamido)propanoic Acid]: in assay [1] (setting [3]), the IC50 turned out to be 15 nM. In addition, the “IC50 cAMP” value in assay [2] (setting [4]) came out at 66 nM.

`COc1cc(OC[C@@H](Nc2ccc(C(=O)NCCC(=O)O)cn2)C(C)C)ccc1-c1cc2ccccc2o1` [Compound 14-1, (S)-3-(6-((1-(4-(benzofuran-2-yl)-3-methoxyphenoxy)-3-methylbutan-2-yl)amino)nicotinamido)propanoic Acid]: the IC50 in assay [1] (setting [3]) is 750 nM. Besides, the “IC50 cAMP” value in assay [2] (setting [4]) worked out at 1232 nM.

In turn, `CCCC[C@@H](COc1ccc(-c2ccc(C(F)(F)F)cc2F)c(OC)c1)Nc1ccc(C(=O)NCCC(=O)O)cn1` [Compound 14-2, (S)-3-(6-((1-((2′-fluoro-2-methoxy-4′-(trifluoromethyl)-[1,1′-biphenyl]-4-yl)oxy)hexan-2-yl)amino)nicotinamido)propanoic Acid] returned an IC50 in assay [1] (setting [3]) of 74 nM. The “IC50 cAMP” value in assay [2] (setting [4]) worked out at 508 nM.

Consider `O=C(NCc1nn[nH]n1)c1ccc(N[C@H](COc2ccc(-c3cc4ccccc4o3)cn2)c2ccccc2)cc1` [Compound 15-1, (S)—N-((2H-tetrazol-5-yl)methyl)-4-((2-((5-(benzofuran-2-yl)pyridin-2-yl)oxy)-1-phenylethyl)amino)benzamide], for which, in assay [1], the IC50 worked out at 388 nM. Besides, the “IC50 cAMP” value in assay [2] is listed as 7356 nM.

As to `CC(C)[C@@H](COc1ccc(-c2ccc(C(F)(F)F)cc2)cn1)Nc1ccc(C(=O)NCc2nnn[nH]2)cc1` [Compound 15-2, (S)—N-((1H-tetrazol-5-yl)methyl)-4-((3-methyl-1-((5-(4-(trifluoromethyl)phenyl)pyridin-2-yl)oxy)butan-2-yl)amino)benzamide], in assay [1], the IC50 amounted to 390 nM. Further, the “IC50 cAMP” value in assay [2] was 1543 nM.

`CC(C)[C@@H](COc1ccc(-c2cc3ccccc3o2)cn1)Nc1ccc(C(=O)NCCC(=O)O)cc1` [Compound 15-3, (S)-3-(4-((1-((5-(benzofuran-2-yl)pyridin-2-yl)oxy)-3-methylbutan-2-yl)amino)benzamido)propanoic Acid] registered an IC50 in assay [1] of 51 nM. In assay [2], the “IC50 cAMP” value amounted to 111 nM.

The compound `CC(C)(C)c1ccc(-c2ccc(OC[C@@H](Nc3ccc(C(=O)NCCC(=O)O)cc3)c3ccccc3)nc2)cc1` [Compound 15-4] displayed an IC50 in assay [1] of 626 nM. For the same compound, the “IC50 cAMP” value in assay [2] was found to be 3241 nM.

Take `O=C(O)CCNC(=O)c1ccc(N[C@H](COc2ccc(-c3cc4ccccc4o3)cn2)c2ccccc2)cc1` [Compound 15-5, (S)-3-(4-((2-((5-(benzofuran-2-yl)pyridin-2-yl)oxy)-1-phenylethyl)amino)benzamido)propanoic Acid]: the IC50 in assay [1] worked out at 706 nM. In addition, in assay [2], the “IC50 cAMP” value was found to be 2067 nM.

Compound `CC(C)(C)c1ccc(-c2ccc(OC[C@@H](Nc3ccc(C(=O)NC[C@@H](O)C(=O)O)cc3)c3ccccc3)nc2)cc1` [Compound 15-6, (R)-3-(4-(((S)-2-((5-(4-(tert-butyl)phenyl)pyridin-2-yl)oxy)-1-phenylethyl)amino)benzamido)-2-hydroxypropanoic Acid] returned an IC50 in assay [1] of 172 nM. In assay [2], the “IC50 cAMP” value is reported as more than 30000 nM.

The compound `CC(C)[C@@H](COc1ccc(-c2ccc(C(F)(F)F)cc2)cn1)Nc1ccc(C(=O)NCCC(=O)O)cc1` [Compound 15-7, (S)-3-(4-((3-methyl-1-((5-(4-(trifluoromethyl)phenyl)pyridin-2-yl)oxy)butan-2-yl)amino)benzamido)propanoic Acid] yielded an IC50 in assay [1] of 753 nM. Moreover, the “IC50 cAMP” value in assay [2] worked out at 258.8 nM.

`CC(C)[C@@H](COc1ccc(-c2ccc(C(F)(F)F)cc2)cn1)Nc1ccc(C(=O)NC[C@@H](O)C(=O)O)cc1` [Compound 15-8, (R)-2-hydroxy-3-(4-(((S)-3-methyl-1-((5-(4-(trifluoromethyl)phenyl)pyridin-2-yl)oxy)butan-2-yl)amino)benzamido)propanoic Acid] had an IC50 in assay [1] of 3300 nM. Besides, the “IC50 cAMP” value in assay [2] is recorded as more than 30000 nM.

In the case of `CC(C)[C@@H](COc1ccc(-c2ccc(C(F)(F)F)cc2Cl)cn1)Nc1ccc(C(=O)NCCC(=O)O)cc1` [Compound 15-9, (S)-3-(4-((1-((5-(2-chloro-4-(trifluoromethyl)phenyl)pyridin-2-yl)oxy)-3-methylbutan-2-yl)amino)benzamido)propanoic Acid], in assay [1], the IC50 stood at 330 nM. Besides, the “IC50 cAMP” value in assay [2] came to 81.5 nM.

In the case of `CC(C)C[C@@H](COc1ccc(-c2ccc(C(F)(F)F)cc2Cl)cn1)Nc1ccc(C(=O)NCCC(=O)O)cc1` [Compound 15-10, (S)-3-(4-((1-((5-(2-chloro-4-(trifluoromethyl)phenyl)pyridin-2-yl)oxy)-4-methylpentan-2-yl)amino)benzamido)propanoic Acid], in assay [1], the IC50 was found to be 80 nM. In addition, the “IC50 cAMP” value in assay [2] is listed as 198.4 nM.

(Values after patent US11384060B2, “Amide compounds and use thereof” (ALPHALA CO., LTD., priority 2017, dated 2022).)
